The source of these data is patent US9493396B2, “Substituted naphthalene compounds as calcium sensing receptor modulators” (LUPIN ATLANTIS HOLDINGS SA, priority 2013, dated 2016).

Counter-ions that a name gives are not always drawn.

The assay deals with T1, Calcium sensing receptor (hCaSR) (Homo sapiens, UniProt P41180).
T1 construct: expressed in transfected cells; host or cells: HEK293 (stably transfected)
T1 sequence (P41180 20-1078): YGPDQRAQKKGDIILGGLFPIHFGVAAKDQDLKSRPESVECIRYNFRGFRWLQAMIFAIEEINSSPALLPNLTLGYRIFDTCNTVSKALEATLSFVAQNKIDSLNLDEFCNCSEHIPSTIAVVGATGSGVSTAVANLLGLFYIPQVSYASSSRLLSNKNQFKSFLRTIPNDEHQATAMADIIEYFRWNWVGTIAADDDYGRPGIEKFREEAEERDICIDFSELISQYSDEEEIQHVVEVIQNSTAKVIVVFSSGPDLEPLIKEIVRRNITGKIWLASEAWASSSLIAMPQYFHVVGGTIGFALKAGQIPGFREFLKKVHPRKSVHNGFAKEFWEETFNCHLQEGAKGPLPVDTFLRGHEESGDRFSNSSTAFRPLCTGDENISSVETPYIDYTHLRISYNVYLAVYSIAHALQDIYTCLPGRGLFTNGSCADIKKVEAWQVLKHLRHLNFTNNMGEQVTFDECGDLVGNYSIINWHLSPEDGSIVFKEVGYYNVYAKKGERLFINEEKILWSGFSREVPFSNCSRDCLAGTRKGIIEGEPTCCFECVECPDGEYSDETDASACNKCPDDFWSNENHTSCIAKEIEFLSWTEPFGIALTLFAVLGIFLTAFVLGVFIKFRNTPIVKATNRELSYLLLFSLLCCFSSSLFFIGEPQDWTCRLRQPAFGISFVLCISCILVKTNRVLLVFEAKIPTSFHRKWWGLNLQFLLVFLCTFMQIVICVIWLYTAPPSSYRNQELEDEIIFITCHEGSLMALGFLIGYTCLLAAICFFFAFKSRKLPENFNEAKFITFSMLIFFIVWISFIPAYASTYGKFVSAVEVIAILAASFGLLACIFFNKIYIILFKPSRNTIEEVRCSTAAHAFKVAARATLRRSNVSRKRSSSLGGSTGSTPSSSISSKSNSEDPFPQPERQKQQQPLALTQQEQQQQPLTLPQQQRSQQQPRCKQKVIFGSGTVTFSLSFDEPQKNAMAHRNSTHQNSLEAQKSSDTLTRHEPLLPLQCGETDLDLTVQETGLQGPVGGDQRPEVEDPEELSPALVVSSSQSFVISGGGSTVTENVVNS
The assay is described as follows: In-vitro assay of calcimimetics through modulation of calcium sensing receptor (intracellular calcium increase, FLIPR). Conditions: stably transfected HEK293 cells expressing hCaSR; Fluo4NW dye; 0.3 mM CaCl2; 8-point assay; read-out: EC50 in range. Type of assay: cell-based. The essentials: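 Stably transfected HEK293 cells expressing hCaSR, loaded 30 min with Fluo4NW dye. Intracellular calcium rise measured on FLIPR in 20 mM HEPES buffer with 0.3 mM CaCl2. EC50 derived from 8-point concentration series.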
Background: Calcium flux is commonly read through the fluorescence of an indicator in the cells.
In general, EC50 refers to the concentration at which the effect is half-maximal. For the compound `COc1cccc([C@@H](C)NC(C)c2cc(-c3ccc(C(=O)O)cc3F)c3ccccc3c2)c1` (stereo partly drawn) [Example 120, 3-Fluoro-4-(3-(1-(((R)-1-(3-methoxyphenyl)ethyl)amino)ethyl)naphthalen-1-yl)benzoic acid hydrochloride], the EC50 was < 20 nM.
Regarding `COc1ccc(-c2cc(C(C)N[C@H](C)c3cccc(Cl)c3)cc3ccccc23)cc1F` (stereo partly drawn) [Example 8, (1R)-1-(3-Chlorophenyl)-N-(1-(4-(3-fluoro-4-methoxyphenyl)naphthalen-2-yl)ethyl)ethanamine hydrochloride], the EC50 was < 20 nM.
For the compound `COc1cccc([C@@H](C)NC(C)c2cc(-c3ccc(C(C)(C)C(=O)O)cc3)c3ccccc3c2)c1` (stereo partly drawn) [Example 138, 2-(4-(3-(1-(((R)-1-(3-Methoxyphenyl)ethyl)amino)ethyl)naphthalen-1-yl)phenyl)-2-methylpropanoic acid hydrochloride], the EC50 lay within 50 to 400 nM.
As for `COC(=O)c1cc(-c2cc(CN[C@H](C)c3cccc(OC)c3)cc3ccccc23)ccc1F` [Example 45, (R)-methyl 2-fluoro-5-(3-(((1-(3-methoxyphenyl)ethyl)amino)methyl)naphthalen-1-yl)benzoate hydrochloride], the EC50 is < 20 nM.
Regarding `COc1cccc([C@@H](C)NC(C)c2cc(-c3cc(F)cc(CCC(=O)O)c3)c3ccccc3c2)c1` (stereo partly drawn) [Example 134, 3-(3-Fluoro-5-(3-(1-(((R)-1-(3-methoxyphenyl)ethyl)amino)ethyl)naphthalen-1-yl)phenyl)propanoic acid hydrochloride], the EC50 is < 20 nM.
Turning to `COc1cccc([C@@H](C)NC(C)c2cc(-c3ccc(C(=O)O)c(C(F)(F)F)c3)c3ccccc3c2)c1` (stereo partly drawn) [Example 124, 4-(3-(1-(((R)-1-(3-Methoxyphenyl)ethyl)amino)ethyl)naphthalen-1-yl)-2-(trifluoromethyl) benzoic acid hydrochloride], the EC50 was in the range of 20 to 50 nM.
In the case of `CCOc1cccc([C@@H](C)NCc2cc(-c3ccc(Cl)c(C(=O)O)c3)c3ccccc3c2)c1` [Example 100, (R)-2-Chloro-5-(3-(((1-(3-ethoxyphenyl)ethyl)amino)methyl)naphthalen-1-yl)benzoic acid hydrochloride], the EC50 is 20 to 50 nM.
The result for `COc1cccc([C@@H](C)NC(C)c2cc(-c3cc(F)cc(OC(C)(C)C(=O)O)c3)c3ccccc3c2)c1` (stereo partly drawn) [Example 151, 2-(3-Fluoro-5-(3-(1-(((R)-1-(3-methoxyphenyl)ethyl)amino)ethyl)naphthalen-1-yl)phenoxy)-2-methylpropanoic acid hydrochloride] reads 50 to 400 nM; that for `CC(N[C@H](C)c1cccc(Cl)c1)c1cc(-c2ccc(S(C)(=O)=O)cc2)c2ccccc2c1` (stereo partly drawn) [Example 159, (1R)-1-(3-Chlorophenyl)-N-(1-(4-(4-(methylsulfonyl)phenyl)naphthalen-2-yl)ethyl)ethanamine hydrochloride], 50 to 400 nM; that for `CCOc1cccc([C@@H](C)NC(C)c2cc(-c3ccc(C(F)(F)F)cc3)c3ccccc3c2)c1` (stereo partly drawn) [Example 12, (1R)-1-(3-Ethoxyphenyl)-N-(1-(4-(4-(trifluoromethyl)phenyl)naphthalen-2-yl)ethyl)ethanamine hydrochloride], < 20 nM.
As to `CCOc1cccc([C@@H](C)NC(C)c2cc(-c3ccc(C)c(CCC(=O)OC(C)C)c3)c3ccccc3c2)c1` (stereo partly drawn) [Example 154, Isopropyl 3-(5-(3-(1-(((R)-1-(3-ethoxyphenyl)ethyl)amino)ethyl)naphthalen-1-yl)-2-methylphenyl) propanoate hydrochloride], the EC50 was 50 to 400 nM.
The result for `CC(C)OC(=O)CCc1cc(F)cc(-c2cc(C(C)N[C@H](C)c3cccc(Cl)c3)cc3ccccc23)c1` (mixture of isomers) [Example 153, Isopropyl 3-(3-(3-(1-(((R)-1-(3-chlorophenyl)ethyl)amino)ethyl)naphthalen-1-yl)-5-fluorophenyl) propanoate hydrochloride] reads 20 to 50 nM; that for `COc1cccc([C@@H](C)NCc2cc(-c3ccc(OC)c(C(=O)O)c3)c3ccccc3c2)c1` [Example 104, (R)-2-Methoxy-5-(3-(((1-(3-methoxyphenyl)ethyl)amino)methyl)naphthalen-1-yl)benzoic acid hydrochloride], 50 to 400 nM.
Turning to `COCCOc1cccc([C@@H](C)NCc2cc(-c3ccc(F)c(C(=O)O)c3)c3ccccc3c2)c1` [Example 113, (R)-2-Fluoro-5-(3-(((1-(3-(2-methoxyethoxy)phenyl)ethyl)amino)methyl)naphthalen-1-yl) benzoic acid hydrochloride], the EC50 was 50 to 400 nM.
For the compound `COc1cccc([C@@H](C)NC(C)c2cc(-c3ccc(Cl)c(C(=O)O)c3)c3ccccc3c2)c1` (stereo partly drawn) [Example 133, 2-Chloro-5-(3-(1-(((R)-1-(3-methoxyphenyl)ethyl)amino)ethyl)naphthalen-1-yl)benzoic acid hydrochloride], the EC50 is < 20 nM.
Take `CCOc1cccc([C@@H](C)NCc2cc(-c3ccc(F)c(C(=O)O)c3)c3ccccc3c2)c1` [Example 98, hydrochloride]: the EC50 is < 20 nM.
Consider `COc1cccc([C@@H](C)NC(C)c2cc(-c3cc(C)cc(C(=O)O)c3)c3ccccc3c2)c1` (stereo partly drawn) [Example 125, 3-(3-(1-(((R)-1-(3-Methoxyphenyl)ethyl)amino)ethyl)naphthalen-1-yl)-5-methylbenzoic acid hydrochloride], for which the EC50 fell in the range of 50 to 400 nM.
Take `CCOc1cccc([C@@H](C)NC(C)c2cc(-c3ccc(C)c(CCC(=O)O)c3)c3ccccc3c2)c1` (stereo partly drawn) [Example 157, 3-(5-(3-(1-(((R)-1-(3-Ethoxyphenyl)ethyl)amino)ethyl)naphthalen-1-yl)-2-methylphenyl) propanoic acid hydrochloride]: the EC50 was < 20 nM.
Consider `CCC(N[C@H](C)c1cccc(OC)c1)c1cc(-c2cc(F)cc(CCC(=O)O)c2)c2ccccc2c1` (stereo partly drawn) [Example 148, 3-(3-Fluoro-5-(3-(1-(((R)-1-(3-methoxyphenyl)ethyl)amino)propyl)naphthalen-1-yl)phenyl)propanoic acid hydrochloride], for which the EC50 was in the range of 50 to 400 nM.
With `CCC(N[C@H](C)c1cccc(OC)c1)c1cc(-c2ccc(C)c(C(=O)O)c2)c2ccccc2c1` (stereo partly drawn) [Example 149, 5-(3-(1-(((R)-1-(3-Methoxyphenyl)ethyl)amino)propyl)naphthalen-1-yl)-2-methylbenzoic acid hydrochloride], the EC50 was 50 to 400 nM.
For `COc1cccc([C@@H](C)NC(C)c2cc(-c3ccc(OC(F)(F)F)cc3)c3ccccc3c2)c1` (stereo partly drawn) [Example 19, (1R)-1-(3-Methoxyphenyl)-N-(1-(4-(4-(trifluoromethoxy)phenyl)naphthalen-2-yl)ethyl)ethanamine hydrochloride], the EC50 is < 20 nM.
Turning to `CCOc1cccc([C@@H](C)NCc2cc(-c3ccc(C)c(C(=O)O)c3)c3ccccc3c2)c1` [Example 91, hydrochloride], the EC50 is < 20 nM.
As to `COc1cccc([C@@H](C)NC(C)c2cc(-c3ccc(F)c(C(=O)O)c3)c3ccccc3c2)c1` (stereo partly drawn) [Example 123, 2-Fluoro-5-(3-(1-(((R)-1-(3-methoxyphenyl)ethyl)amino)ethyl)naphthalen-1-yl)benzoic acid hydrochloride], the EC50 was < 20 nM.
Take `CC(N[C@H](C)c1cccc(Cl)c1)c1cc(-c2cc(F)cc(CCC(=O)O)c2)c2ccccc2c1` (mixture of isomers) [Example 156, 3-(3-(3-(1-(((R)-1-(3-Chlorophenyl)ethyl)amino)ethyl)naphthalen-1-yl)-5-fluorophenyl)propanoic acid hydrochloride]: the EC50 lay within 20 to 50 nM.
The result for `CC(N[C@H](C)c1cccc2ccccc12)c1cc(-c2ccc(C(F)(F)F)cc2)c2ccccc2c1` (single isomer, unassigned) [Example 9a, hydrochloride] reads 20 to 50 nM.
